Measurements: US7173018B2, “Phospholipid derivatives of non-steroidal anti-inflammatory drugs” (D-Pharm, Ltd., priority 1998, dated 2007)

Tests used:
[1] = tested on: Carrageenan-induced rat paw edema; assay: Carrageenan-induced rat paw edema (anti-inflammatory efficacy); assay type: in vivo; details: rats, 3, 5 and 7 hours post-carrageenan, p<0.05, FIG. 3
Method: Efficacy of DP-DFC lipid derivatives was tested in vivo in the model system of rodent carrageenan edema test.
Carrageenan-induced rat paw edema is a widely employed animal model for acute inflammation. The objective of the study is to assess the potential prophylactic effects of DP-DCF derivatives on the prevention of inflammatory swelling and, in particular, to compare the efficacy parameters with those obtained for diclofenac. The experimental set-up was as follows: Male Sprague-Dawley rats weighing 120–180 g (supplied by Harlan Laboratories Breeding Center, Israel) were intraperitoneally (i.p.) injected with drug or prodrug one hour prior to the induction of inflammation with carrageenan. Animals injected with vehicle alone served as control group.
Paw edema was induced by a single sub-plantar injection of 0.1 ml 2% carrageenan in physiological saline, into test animals' right hind paws. Just prior to paw edema induction, the paw thickness of the test animals' right hind paws was measured in triplicate using a plethysmograph and micrometer to provide a baseline. At 3, 5 and 7 hours post carrageenan injection, the right paw thickness was measured in the same manner as before.
Potential anti-inflammatory activity in suppressing carrageenan-induced paw oedema was assessed by the relative differences in paw volumes between pre- and post-carrageenan measurements, expressed as (%) change. […]

[2] = tested on: global forebrain ischemia; assay: Global forebrain ischemia model, serum neuron specific enolase (NSE); assay type: in vivo, Mongolian gerbils; details: gerbils
Method: Neuroprotective effects of compounds of the invention were examined in the global forebrain ischemic model system in Mongolian gerbils.
Male Mongolian gerbils 60–70 g (Charles River Laboratories, USA) were used in this study. Global forebrain ischemia was induced by transient occlusion of both carotid arteries for 10 minutes, using arterial clips. The tested compounds were orally administered to the animals, 7–8 animals per group, by either one of two schemes: • a) single dose administration of commercial diclofenac (Sigma, USA; 10 mg/kg) or dose-equivalent of DP-DCF; Z=5 (30 mg/kg). The administration was per os (p.o.) two hours before induction of ischemia (FIG. 4); • b) multiple dosing of DP-DCF; Z=5 (30 mg/kg) orally administered daily for 5 days beginning four days prior to induction of ischemia. (FIG. 5).
In both schemes, animals treated with vehicle alone served as control groups. Blood samples were withdrawn from eye sinuses of the animals 24 hours after the onset of ischemia and serum levels of neuron specific enolase (NSE) were determined by radioimmunoassay using NSE kit (Pharmatope Ltd., Israel).
It has been shown that serum levels of NSE are elevated in the event of ischemic insult. Thus, serum level of NSE may serve as a marker for the degree of neuronal damage (Barone et al. (1993) Brain Res. 623: 77–82).

[3] = In vivo sub-chronic toxicity study: body weight changes; parameters: species or system rat; details: rats, 10 mg/kg p.o. gavage daily for 14 days; FIG. 1
Method: DP-DCF compounds were evaluated for sub-chronic toxicity during 14-day drug administration period by following two criteria: a) monitoring body weight changes, and b) evaluating gastro-toxicity scores.
Male Sprague-Dawley rats weighing 250–280 g were kept under standard conditions for an acclimatization period of one week with food and water supplied ad lib. The rats were administered with commercial diclofenac (DCF; Sigma, USA) or with equivalent doses of 1-Stearoyl-2-{4-[2-(2,6-dichloroanilino)-phenylacetamido]butanoyl}-sn-glycero-3-phosphocholine (DP-DCF; Z=3) or 1-Stearoyl-2-{6-[2-(2,6-dichloroanilino)-phenylacetamido]hexanoyl}-sn-glycero-3-phosphocholine (DP-DCF; Z=5), p.o. by gavage daily for 14 days. Animals treated with the vehicle solution alone serve as control group.
The treatment groups were as follows:
A major sign of general toxicity is decreasing of body weight. Male Sabra rats were treated as described above. The rats were weighed prior to dosing at the beginning of the experiment (day zero) and at the 5th, 9th and 13th day of the treatment.

[4] = In vivo sub-chronic toxicity study: gastro-toxicity scores; parameters: species or system rat; details: rats, 10 mg/kg p.o. daily, day 14; scores 0 (no visible lesions) to 5 (perforation); FIG. 2
Method: Male Sprague-Dawley rats weighing 250–280 g were kept under standard conditions for an acclimatization period of one week with food and water supplied ad lib. […] Animals treated with the vehicle solution alone serve as control group.
Toxicity scores were assessed at the end of the 14-day multiple p.o drug administration period. On day 14, the animals were anesthetized 4 hours after administration of the test materials by i.p. injection of 0.5 ml pentobarbitone sodium (200 mg/ml) and laparatomy was preformed to remove the rat's stomach with approximately 15 mm of the associated duodenum. The stomachs were cut open along the small curvature and washed, with gentle rubbing, under running water. A semi-quantitative assessment of the gastric damage was determined by assigning scores ranging from 0 to 5. The scores indicate as follows: (0) No macroscopically visible lesions; (1) Hyperemia; (2) One-two slight lesions; (3) More than 2 slight lesions; (4) Severe lesions; (5) Perforation.

Compound | Anti-inflammatory activity: suppression of carrageenan-induced increase of paw volume ([1]; 30 mg/kg i.p. one hour prior to carrageenan) | Serum NSE level 24 hours after ischemia ([2]; 30 mg/kg orally daily for 5 days beginning four days prior to ischemia, p<0.05, FIG. 5) | Serum NSE level 24 hours after ischemia ([2]; single dose 30 mg/kg p.o. two hours before ischemia, FIG. 4) | Body weight changes (%) [3] | Gastro-toxicity score [4] | Anti-inflammatory activity: suppression of carrageenan-induced increase of paw volume ([1]; 10 mg/kg i.p. one hour prior to carrageenan)
1-Stearoyl-2-{6-[2-(2,6-dichloroanilino)phenylacetamido]hexanoy}-sn-glycero-3-phosphocholine [DCF n=5] | statistically significant and consistent anti-inflammatory activity | significant reduction in NSE level | reduced in comparison to NSE level in serum of animals that were treated with DCF or vehicle alone |  |  | 
O=C(O)Cc1ccccc1Nc1c(Cl)cccc1Cl [DCF, [o-(2,6-dichloroanilino)phenyl]acetic acid] |  |  |  | maximal decrease of body weight on day 5 | 4 | statistically significant and consistent anti-inflammatory activity
